Where “and” joins values, the source holds several entries; their conditions need not be identical. Identical values can stand only once. Where a SMILES comes first, the peptide text is derived from it. [ ]: non-standard residue; d: D form. Hyp = O=C(O)[C@@H]1C[C@@H](O)CN1
Experiments:
CCL3/MIP-1 alpha = test: Example 9 Luminex, LPS hPBMCs: CCL3/MIP-1 alpha; assay type: cell-based, human
Experimental: (§1) Treatment Human PBMCs were pretreated with YY-101, YDE-011 and YDE-043 or reference compound; Xiidra® at various concentration (ranging from 1 nM to 100 uM) for 2 h before stimulation. An equal volume of 0.5% DMSO was used as a vehicle control. Then, the cells were treated with LPS at 5 ug/ml. The supernatants from treated cells were harvested at 24 h and placed in a 96 well for Luminex cytokine & chemokine profiling using a Luminex 200 multiplex assay (Luminex; R&D system, USA).
(§2) The main study arm with triplicate wells per group in a 24-well plate: • 1. Blank • 2. PBMC: 0.5% DMSO • 3. PBMC+LPS (5 ug/ml) • 4. PBMC+YY-101 100 uM • 5. PBMC+YY-101 10 uM • 6. PBMC+YY-101 1 uM • 7. PBMC+YY-101 0.1 uM • 8. PBMC+YY-101 0.01 uM • 9. PBMC+LPS (5 ug/ml)+Xiidra®100 uM • 10. PBMC+LPS (5 ug/ml)+Xiidra® 10 uM • 11. PBMC+LPS (5 ug/ml)+Xiidra® 1 uM • 12. PBMC+LPS (5 ug/ml)+Xiidra®0.1 uM • 13. PBMC+LPS (5 ug/ml)+Xiidra®0.01 uM • 14. PBMC+LPS (5 ug/ml)+Xiidra®0.001 uM • 15. PBMC+LPS (5 ug/ml)+YY-101 100 uM • 16. PBMC+LPS (5 ug/ml)+YY-101 10 uM • 17. PBMC+LPS (5 ug/ml)+YY-101 1 uM • 18. PBMC+LPS (5 ug/ml)+YY-101 0.1 uM • 19. PBMC+LPS (5 ug/ml)+YY-101 0.01 uM • 20. PBMC+LPS (5 ug/ml)+YY-101 0.001 uM • 21. PBMC+LPS (5 ug/ml)+YDE-011 100 uM • 22. PBMC+LPS (5 ug/ml)+YDE-011 10 uM • 23. PBMC+LPS (5 ug/ml)+YDE-011 1 uM • 24. PBMC+LPS (5 ug/ml)+YDE-011 0.1 uM • 25. PBMC+LPS (5 ug/ml)+YDE-011 0.01 uM • 26. PBMC+LPS (5 ug/ml)+YDE-011 0.001 uM • 27. PBMC+LPS (5 ug/ml)+YDE-043 100 uM • 28. PBMC+LPS (5 ug/ml)+YDE-043 10 uM • 29. PBMC+LPS (5 ug/ml)+YDE-043 1 uM • 30. PBMC+LPS (5 ug/ml)+YDE-043 0.1 uM • 31. PBMC+LPS (5 ug/ml)+YDE-043 0.01 uM • 32. PBMC+LPS (5 ug/ml)+YDE-043 0.001 uM
(§3) Multiplex assay was used to measure 30 cytokines and chemokines. The 1:2, 1:10 and 1:200 diluted cell supernatant and serial dilution of the standard were dispensed into a 96 well plate at 50 ul/well. Then, the pre-mixed cocktail of antibody-coated magnetic beads was dispensed at 50 ul/well and incubated at room temperature for 2 h in a horizontal orbital microplate shaker at 800±500 rpm. The beads were washed using a magnetic device to prevent loss. The biotin-antibody was dispensed in 50 ul of each well and incubated at room temperature for 1 h in a shaker at 800±500 rpm. After washing, streptavidin-PE was added at 50 ul/well and incubated at room temperature for 30 min in a shaker under the same conditions. Finally, after washing, wash buffer (100 ul/well) was added to the plate and incubated in a shaker for 2 min. The Luminex™ 200 setting were set according to the manufacturer's protocol. The data was calculated with a standard five-parameter logistic nonlinear regression analysis of the data (xPonent software 4.2, USA). The levels of cytokine/chemokine are normalized to the live cell counts (1×10^5 cells/mL) and presented as concentrations per mL (pg/mL or ng/mL).

CCL4/MIP-1 beta = test: Example 9 Luminex, LPS hPBMCs: CCL4/MIP-1 beta; assay type: cell-based, human; conditions: PBMC + LPS(5 ug/ml); for MFI (Bead name: CCL4/MIP-1 beta): dilution 10
Experimental: as §1, §2, §3

[1] = PBMC + LPS(5 ug/ml) + test article 0.001 uM, Mean
[2] = PBMC + LPS(5 ug/ml) + test article 0.001 uM, individual replicates
[3] = PBMC + LPS(5 ug/ml) + test article 0.01 uM, Mean
[4] = PBMC + LPS(5 ug/ml) + test article 0.01 uM, individual replicates
[5] = PBMC + LPS(5 ug/ml) + test article 0.1 uM, Mean
[6] = PBMC + LPS(5 ug/ml) + test article 0.1 uM, individual replicates
[7] = PBMC + LPS(5 ug/ml) + test article 1 uM, Mean
[8] = PBMC + LPS(5 ug/ml) + test article 1 uM, individual replicates
[9] = PBMC + LPS(5 ug/ml) + test article 10 uM, Mean
[10] = PBMC + LPS(5 ug/ml) + test article 10 uM, individual replicates
[11] = PBMC + LPS(5 ug/ml) + test article 100 uM, Mean
[12] = PBMC + LPS(5 ug/ml) + test article 100 uM, individual replicates
[13] = test article 0.001 uM, single replicates
[14] = test article 0.01 uM, single replicates
[15] = test article 0.1 uM, single replicates
[16] = test article 1 uM, single replicates
[17] = test article 10 uM, single replicates
[18] = test article 100 uM, single replicates

Structure (SMILES): CC(C)C[C@H](NC(=O)[C@H](CCC(N)=O)NC(=O)CNC(=O)[C@@H]1C[C@@H](O)CN1)C(=O)NCC(=O)O [YDE-043] (H-[Hyp]GQLG-OH; N-terminus and C-terminus assumed)
- Concentration (CCL3/MIP-1 alpha; [1]): 7935.0 pg/mL
- conc/live cell (CCL3/MIP-1 alpha; [1]): 1611.4 pg/10^5
- Concentration (CCL3/MIP-1 alpha; [2]): 7637.9 pg/mL and 8204.6 pg/mL and 7962.5 pg/mL
- conc/live cell (CCL3/MIP-1 alpha; [2]): 1735.9 pg/10^5 and 1367.4 pg/10^5 and 1731.0 pg/10^5
- Concentration (CCL3/MIP-1 alpha; [3]): 7883.4 pg/mL
- conc/live cell (CCL3/MIP-1 alpha; [3]): 1505.4 pg/10^5
- Concentration (CCL3/MIP-1 alpha; [4]): 7796.2 pg/mL and 7985.9 pg/mL and 7868.0 pg/mL
- conc/live cell (CCL3/MIP-1 alpha; [4]): 1732.5 pg/10^5 and 1210.0 pg/10^5 and 1573.6 pg/10^5
- Concentration (CCL3/MIP-1 alpha; [5]): 7645.0 pg/mL
- conc/live cell (CCL3/MIP-1 alpha; [5]): 1418.9 pg/10^5
- Concentration (CCL3/MIP-1 alpha; [6]): 7513.4 pg/mL and 7625.5 pg/mL and 7796.2 pg/mL
- conc/live cell (CCL3/MIP-1 alpha; [6]): 1502.7 pg/10^5 and 1361.7 pg/10^5 and 1392.2 pg/10^5
- Concentration (CCL3/MIP-1 alpha; [7]): 7636.6 pg/mL
- conc/live cell (CCL3/MIP-1 alpha; [7]): 1442.9 pg/10^5
- Concentration (CCL3/MIP-1 alpha; [8]): 7962.5 pg/mL and 6891.7 pg/mL and 8055.7 pg/mL
- conc/live cell (CCL3/MIP-1 alpha; [8]): 1372.8 pg/10^5 and 1435.8 pg/10^5 and 1520.0 pg/10^5
- Concentration (CCL3/MIP-1 alpha; [9]): 7606.3 pg/mL
- conc/live cell (CCL3/MIP-1 alpha; [9]): 1409.0 pg/10^5
- Concentration (CCL3/MIP-1 alpha; [10]): 7500.8 pg/mL and 7450.2 pg/mL and 7868.0 pg/mL
- conc/live cell (CCL3/MIP-1 alpha; [10]): 1442.5 pg/10^5 and 1379.7 pg/10^5 and 1405.0 pg/10^5
- Concentration (CCL3/MIP-1 alpha; [11]): 7769.2 pg/mL
- conc/live cell (CCL3/MIP-1 alpha; [11]): 1234.0 pg/10^5
- Concentration (CCL3/MIP-1 alpha; [12]): 7962.5 pg/mL and 7575.9 pg/mL
- conc/live cell (CCL3/MIP-1 alpha; [12]): 1284.3 pg/10^5 and 1183.7 pg/10^5
- Concentration (CCL4/MIP-1 beta) (CCL4/MIP-1 beta; test article 0.001 uM, Mean): 7716.4 pg/mL
- conc/live cell (CCL4/MIP-1 beta) (CCL4/MIP-1 beta; test article 0.001 uM, Mean): 1568.7 pg/10^5
- MFI (Bead name: CCL4/MIP-1 beta) (CCL4/MIP-1 beta; test article 0.001 uM, Mean): 177.7
- MFI (Bead name: CCL4/MIP-1 beta) (CCL4/MIP-1 beta; [13]): 165.5 and 185.0 and 182.5
- Concentration (CCL4/MIP-1 beta) (CCL4/MIP-1 beta; [13]): 7441.6 pg/mL and 7881.5 pg/mL and 7826.1 pg/mL
- conc/live cell (CCL4/MIP-1 beta) (CCL4/MIP-1 beta; [13]): 1691.3 pg/10^5 and 1313.6 pg/10^5 and 1701.3 pg/10^5
- Concentration (CCL4/MIP-1 beta) (CCL4/MIP-1 beta; test article 0.01 uM, Mean): 7755.3 pg/mL
- conc/live cell (CCL4/MIP-1 beta) (CCL4/MIP-1 beta; test article 0.01 uM, Mean): 1483.8 pg/10^5
- MFI (Bead name: CCL4/MIP-1 beta) (CCL4/MIP-1 beta; test article 0.01 uM, Mean): 179.3
- MFI (Bead name: CCL4/MIP-1 beta) (CCL4/MIP-1 beta; [14]): 178.0 and 177.0 and 183.0
- Concentration (CCL4/MIP-1 beta) (CCL4/MIP-1 beta; [14]): 7725.6 pg/mL and 7703.2 pg/mL and 7837.2 pg/mL
- conc/live cell (CCL4/MIP-1 beta) (CCL4/MIP-1 beta; [14]): 1716.8 pg/10^5 and 1167.1 pg/10^5 and 1567.4 pg/10^5
- Concentration (CCL4/MIP-1 beta) (CCL4/MIP-1 beta; test article 0.1 uM, Mean): 7358.9 pg/mL
- conc/live cell (CCL4/MIP-1 beta) (CCL4/MIP-1 beta; test article 0.1 uM, Mean): 1365.2 pg/10^5
- MFI (Bead name: CCL4/MIP-1 beta) (CCL4/MIP-1 beta; test article 0.1 uM, Mean): 162.0
- MFI (Bead name: CCL4/MIP-1 beta) (CCL4/MIP-1 beta; [15]): 153.5 and 159.5 and 173.0
- Concentration (CCL4/MIP-1 beta) (CCL4/MIP-1 beta; [15]): 7161.3 pg/mL and 7302.4 pg/mL and 7612.9 pg/mL
- conc/live cell (CCL4/MIP-1 beta) (CCL4/MIP-1 beta; [15]): 1432.3 pg/10^5 and 1304.0 pg/10^5 and 1359.5 pg/10^5
- Concentration (CCL4/MIP-1 beta) (CCL4/MIP-1 beta; test article 1 uM, Mean): 7359.3 pg/mL
- conc/live cell (CCL4/MIP-1 beta) (CCL4/MIP-1 beta; test article 1 uM, Mean): 1391.3 pg/10^5
- MFI (Bead name: CCL4/MIP-1 beta) (CCL4/MIP-1 beta; test article 1 uM, Mean): 162.3
- MFI (Bead name: CCL4/MIP-1 beta) (CCL4/MIP-1 beta; [16]): 175.0 (2×) and 137.0
- Concentration (CCL4/MIP-1 beta) (CCL4/MIP-1 beta; [16]): 7658.2 pg/ml (2×) and 6761.7 pg/ml
- conc/live cell (CCL4/MIP-1 beta) (CCL4/MIP-1 beta; [16]): 1320.4 pg/10^5 and 1408.7 pg/10^5 and 1444.9 pg/10^5
- Concentration (CCL4/MIP-1 beta) (CCL4/MIP-1 beta; test article 10 uM, Mean): 7298.5 pg/mL
- conc/live cell (CCL4/MIP-1 beta) (CCL4/MIP-1 beta; test article 10 uM, Mean): 1352.7 pg/10^5
- MFI (Bead name: CCL4/MIP-1 beta) (CCL4/MIP-1 beta; test article 10 uM, Mean): 159.3
- MFI (Bead name: CCL4/MIP-1 beta) (CCL4/MIP-1 beta; [17]): 159.0 and 158.0 and 161.0
- Concentration (CCL4/MIP-1 beta) (CCL4/MIP-1 beta; [17]): 7290.8 pg/mL and 7267.3 pg/mL and 7337.4 pg/mL
- conc/live cell (CCL4/MIP-1 beta) (CCL4/MIP-1 beta; [17]): 1402.1 pg/10^5 and 1345.8 pg/10^5 and 1310.3 pg/10^5
- Concentration (CCL4/MIP-1 beta) (CCL4/MIP-1 beta; test article 100 uM, Mean): 6094.9 pg/mL
- conc/live cell (CCL4/MIP-1 beta) (CCL4/MIP-1 beta; test article 100 uM, Mean): 968.2 pg/10^5
- MFI (Bead name: CCL4/MIP-1 beta) (CCL4/MIP-1 beta; test article 100 uM, Mean): 111.3
- MFI (Bead name: CCL4/MIP-1 beta) (CCL4/MIP-1 beta; [18]): 118.5 and 104.0
- Concentration (CCL4/MIP-1 beta) (CCL4/MIP-1 beta; [18]): 6290.4 pg/mL and 5899.5 pg/mL
- conc/live cell (CCL4/MIP-1 beta) (CCL4/MIP-1 beta; [18]): 1014.6 pg/10^5 and 921.8 pg/10^5
